Numbers after ± are expanded uncertainties.
Assays:
[1] = xn = mol fraction of the nth substance listed; settings: x2 = 0; for surface tension liquid-gas: Drop volume; for viscosity / speed of sound / mass density: 99 kPa, Liquid; for viscosity: Capillary tube (Ostwald / Ubbelohde) method; for speed of sound: Frequency=3 MHz, Sing-around technique in a fixed-path interferometer; for mass density: Vibrating tube method
[2] = refractive index (Na D-line) (dimensionless); xn = mol fraction of the nth substance listed; settings: 99 kPa, Liquid, Standard Abbe refractometry, x2 = 0
[3] = refractive index (Na D-line) (dimensionless); settings: 99 kPa, Liquid, Standard Abbe refractometry
[4] = for surface tension liquid-gas: Drop volume; for viscosity: Capillary tube (Ostwald / Ubbelohde) method

O [water] + CCC[n+]1ccccc1.F[B-](F)(F)F
Settings	mass density, [1] [kg/m3]	refractive index, [2]	speed of sound, [1] [m/s]	surface tension liquid-gas, [1] [mN/m]	viscosity, [1] [mPa·s]
293.15 K	–	1.33297 ± 0.00031	–	72.7 ± 0.8	1.002 ± 0.08
303.15 K	–	1.33196 ± 0.00031	–	71.1 ± 0.8	0.797 ± 0.064
313.15 K	–	1.33061 ± 0.00031	1529.2 ± 1.2	69.6 ± 0.7	0.653 ± 0.052
323.15 K	988.04 ± 1	1.32904 ± 0.00031	–	67.8 ± 0.7	0.547 ± 0.044

O [water]
Settings	refractive index, 293.15 K	refractive index, 303.15 K	refractive index, 313.15 K	refractive index, 323.15 K	surface tension liquid-gas, 293.15 K [mN/m]	surface tension liquid-gas, 303.15 K [mN/m]	surface tension liquid-gas, 313.15 K [mN/m]	surface tension liquid-gas, 323.15 K [mN/m]
[3]	1.33297 ± 0.00031	1.33196 ± 0.00031	1.33061 ± 0.00031	1.32904 ± 0.00031	–	–	–	–
[4]	–	–	–	–	72.7 ± 0.8	71.1 ± 0.8	69.6 ± 0.7	67.8 ± 0.7

[4], 99 kPa, Liquid
Settings	viscosity [mPa·s]
293.15 K	1.002 ± 0.08
303.15 K	0.797 ± 0.064
313.15 K	0.653 ± 0.052
323.15 K	0.547 ± 0.044

Settings	speed of sound [m/s]
[4], 313.15 K, 99 kPa, Liquid, Frequency=3 MHz, Sing-around technique in a fixed-path interferometer	1529.2 ± 1.2

Settings	mass density [kg/m3]
[4], 323.15 K, 99 kPa, Liquid, Vibrating tube method	988.04 ± 1

CCCC[n+]1ccccc1.F[B-](F)(F)F [1-butylpyridinium tetrafluoroborate]
Settings	refractive index
[3], 293.15 K	1.44719 ± 0.00037

O [water] + CCCC[n+]1ccccc1.F[B-](F)(F)F
Settings	mass density, [1] [kg/m3]	refractive index, [2]	speed of sound, [1] [m/s]	surface tension liquid-gas, [1] [mN/m]	viscosity, [1] [mPa·s]
293.15 K	–	1.33297 ± 0.00031	–	72.7 ± 0.8	1.002 ± 0.08
303.15 K	–	1.33196 ± 0.00031	–	71.1 ± 0.8	0.797 ± 0.064
313.15 K	–	1.33061 ± 0.00031	1529.2 ± 1.2	69.6 ± 0.7	0.653 ± 0.052
323.15 K	988.04 ± 1	1.32904 ± 0.00031	–	67.8 ± 0.7	0.547 ± 0.044
